Measured values: patent US7220420B2, “Hepatitis C virus-derived peptides capable of inducing cytotoxic T lymphocyte responses” (The Scripps Research Institute, priority 1994, dated 2007)
Read-outs that look alike come from different tables or passages of the source. No end group written: not given here.

Assays:
[1] = test system: peptide-pulsed HLA-A2 matched JY EBV-BCL cells
[2] = test system: peptide pulsed HLA-A2 matched JY EBV-BCL target cells; assay type: cell-based, human

For CC(C)C[C@H](NC(=O)[C@H](C)NC(=O)[C@H](CC(C)C)NC(=O)[C@@H](N)CC(C)C)C(=O)N[C@@H](CC(C)C)C(=O)N[C@@H](CO)C(=O)N[C@@H](CS)C(=O)N[C@@H](CC(C)C)C(=O)N[C@H](C(=O)N[C@H](C(=O)O)C(C)C)[C@@H](C)O [SEQ ID NO:2], the “peptide specific cytotoxic activity %” value ([1]; subject C-2, 2 weeks, E/T 80) was 29%, the “peptide specific cytotoxic activity %” value ([1]; subject C-2, 3 weeks, E/T 25) was 37% and the “peptide specific cytotoxic activity %” value ([1]; subject C-2, 4 weeks, E/T 7) was 33%. For the same compound, the “peptide specific cytotoxic activity %” value ([1]; subject C-2, 4 weeks, E/T 21) was 64%, the “peptide specific cytotoxic activity %” value ([1]; subject C-2, 4 weeks, E/T 64) was 81% and the “peptide specific cytotoxic activity %” value ([1]; subject C-2, 5 weeks, E/T 2) was 24%. For the same compound, the “peptide specific cytotoxic activity %” value ([1]; subject C-2, 5 weeks, E/T 6) was 57%, the “peptide specific cytotoxic activity %” value ([1]; subject C-2, 5 weeks, E/T 18) was 60% and the “peptide specific cytotoxic activity %” value ([1]; subject C-3, 2 weeks, E/T 80) was 19%. The “peptide specific cytotoxic activity %” value ([1]; subject C-3, 3 weeks, E/T 40) was 18%, the “peptide specific cytotoxic activity %” value ([1]; subject C-3, 4 weeks, E/T 4) was 20% and the “peptide specific cytotoxic activity %” value ([1]; subject C-3, 4 weeks, E/T 11) was 37%. For the same compound, the “peptide specific cytotoxic activity %” value ([1]; subject C-3, 4 weeks, E/T 33) was 60%, the “peptide specific cytotoxic activity %” value ([1]; subject C-3, 5 weeks, E/T 3) was 35% and the “peptide specific cytotoxic activity %” value ([1]; subject C-3, 5 weeks, E/T 10) was 52%. For the same compound, the “peptide specific cytotoxic activity %” value ([1]; subject C-3, 5 weeks, E/T 30) was 76%.
For ILDSFDPLV [SEQ ID NO:42], the “peptide specific cytotoxic activity %” value ([1]; subject C-2, Exp I, 2 weeks, E/T 40) was 29%, the “peptide specific cytotoxic activity %” value ([1]; subject C-2, Exp II (PBMC collected two months after Exp I), 2 weeks, E/T 40) was 2% and the “peptide specific cytotoxic activity %” value ([1]; subject C-2, Exp II, 3 weeks, E/T 25) was 3%. The “peptide specific cytotoxic activity %” value ([1]; subject C-2, Exp II, 4 weeks, E/T 10) was 10%, the “peptide specific cytotoxic activity %” value ([1]; subject C-2, Exp II, 4 weeks, E/T 29) was 29% and the “peptide specific cytotoxic activity %” value ([1]; subject C-2, Exp II, 4 weeks, E/T 88) was 59%. For the same compound, the “peptide specific cytotoxic activity %” value ([1]; subject C-2, Exp II, 5 weeks, E/T 6) was 20%, the “peptide specific cytotoxic activity %” value ([1]; subject C-2, Exp II, 5 weeks, E/T 19) was 52% and the “peptide specific cytotoxic activity %” value ([1]; subject C-2, Exp II, 5 weeks, E/T 56) was 83%.
For “LLCPAGHAV [SEQ ID NO:26, HCV-1 NS3 aa 1169–1177]”, the “lysis of target cells by peptide specific CTL lines (FIG. 2)” value ([1]; subject C-3, lines four weeks in culture, varying effector/target cell ratio) was “recognize and lyse HLA A2-matched EBV-BCL in a dose dependent fashion” and the “represents a CTL epitope (dagger mark)” value ([2]; panel of 53 peptides, assay of Example 2) was “LLCPAGHAV^†”.
With LLFNILGGWV [SEQ ID NO:35] the “represents a CTL epitope (dagger mark)” value [2] was “LLFNILGGWV^†”.
